Results on 4 compounds are retold here after EP1097139B1, “QUINOLINE DERIVATIVES” (Active Biotech AB, priority 1998, dated 2000).

Each structure is given as a SMILES string.

Data set [1] deals with female rats during pregnancy. The data set can be described thus: Teratogenic effects in the rat. It counts as in vivo. The note with it: dose of 6 mg/kg/day, subcutaneously, day 8 to 14 of pregnancy. The text has this: Teratogenic effects in the rat.
The compounds were administrated subcutaneously to female rats during pregnancy, i.e., day 8 to 14 of pregnancy. The rats were caesarean sectioned and necropsied on day 20 after fertilisation. The foetuses were examined for external and internal abnormalities.

In data set [2] the test system is beagle dogs. The data set can be described thus: Beagle Pain Syndrome (BPS). It counts as in vivo. The conditions noted are these: different breeds of beagle dogs. On the procedure:
The disease is reflected by clinical and laboratory manifestations justifying BPS as a model for the flu-like syndrome induced by roquinimex in man.
Beagle Pain Syndrome (BPS).
The compounds were administrated intravenously to beagle dogs. The dosage was given for five consecutive days. The dogs were evaluated for clinical and laboratory signs of the pain syndrome, e.g., fever, increased erythrocyte sedimentation rate (ESR), alkaline phosphate (AP), induction of acute phase proteins and vasculitis

The subject of data set [3] is man. The conditions noted are these: e.g. a flu-like syndrome; cited from earlier work.
The subject of data set [4] is female rats during pregnancy. The conditions noted are these: no dose given, background statement; cited from earlier work.
Data set [5] relates to acute experimental autoimmune encephalomyelitis (aEAE). The data set can be described thus: Acute experimental autoimmune encephalomyelitis (aEAE) inhibition. It is filed as in vivo. The note with it: at ≥5 mg/kg, mice, treatment control.

In the case of `CSc1cccc2c1c(O)c(C(=O)N(C)c1ccccc1)c(=O)n2C` [N-methyl-N-phenyl-1,2-dihydro-4-hydroxy-5-methylthio-1-methyl-2-oxo-quinoline-3-carboxamide], in data set [1], the “Teratogenic effects in the rat” value is “teratogenic”.
The same measure, in the same setting: for `CCN(C(=O)c1c(O)c2c(SC)cccc2n(C)c1=O)c1ccccc1` [Compound A, N-ethyl-N-phenyl-1,2-dihydro-4-hydroxy-5-methylthio-1-methyl-2-oxo-quinoline-3-carboxamide] the value was “non-teratogenic”.
On to `CN(C(=O)c1c(O)c2ccccc2n(C)c1=O)c1ccccc1` [Roquinimex, roquinimex], for which the “induction of the Beagle Pain Syndrome (BPS)” value in data set [2] is given as “induce the Beagle Pain Syndrome (BPS)”. Further, in data set [3], the “side effects in man” value is on record as “induces dose-limiting side effects”. The “teratogenic in the rat” value in data set [4] is “teratogenic”. Further, the “inhibition of acute experimental autoimmune encephalomyelitis (aEAE)” value in data set [5] is “more than 50%”.
As for `CSc1cccc2c1c(O)c(C(=O)N(C)c1ccc(F)cc1F)c(=O)n2C` [Compound B, N-methyl-N-(2,4-difluoro-phenyl)-1,2-dihydro-4-hydroxy-5-methylthio-1-methyl-2-oxo-quinoline-3-carboxamide], the “Teratogenic effects in the rat” value in data set [1] is recorded as “non-teratogenic”.
